From patent publication US20220017572A1, “GEMINOID LIPOPEPTIDE COMPOUNDS AND THEIR USES” (Erasmus University Medical Center Rotterdam, priority 2016, published 2022)
Non-standard residues stand in square brackets, D forms with d. Residues, ends and D or L forms follow the SMILES beside them. C16 = C16 alkyl chain at peptide end (geminoid)

Experiments:
DENV2 protease = biological target: T1, DENV2 protease (Dengue virus type 2, UniProt P14340); experiment: DENV2 protease biochemical assay; conditions: for % Inhibition at 50 μM (2) / inhibition at 50 µM: 50 μM inhibitor
T1 construct: The active site of the dengue protease is in the N-terminal part of NS3

DENV2 protease replicon = DENV2 protease replicon assay; assay type: cell-based; conditions: lowest concentration with observed activity in replicon assay
thrombin = thrombin (Homo sapiens, UniProt P00734); experiment: Thrombin inhibition, fluorimetric enzyme assay; assay type: biochemical; conditions: 36.5° C., read-out: Residual Activity (%) Thrombin
Method: The enzyme was dissolved in 1 mL MES buffer (10 mM), 1 mM CaCl2, pH 7.0 at 36.5° C. Substrate was added in a concentration 10 times the Km, and the inhibitor compounds of type C (C16-KGnK-C16, C16-KAnK-C16, and C16-RAnR-C16) were added in increasing concentrations (1.0, 5.0, 10.0, 20.0, 40.0 μL) from a stock solution of 2 mg in 1 mL DMSO. The residual activity was measured in a Hitachi F2500 spectrofluorimeter, and plots were fitted using the Grafit® software (Erithracus Software, Horley, Surrey, UK). All the assays were calculated by the Morrison equation for competitive inhibition (eq. 1, [Morrison, 1969]). The amount of substrate used for the tight binding titration experiments follow all the requirements, where [S]<<Km for all enzymes, so the Kiapp=Ki. […]

dengue 2 protease [1] = biological target: T2, dengue 2 protease (Dengue virus type 2, UniProt P14340); experiment: Dengue 2 protease inhibition in presence of Triton X-100 (detergent test, Nature Protocol); assay type: biochemical, dengue 2 virus; conditions: 0.05% Triton X-100; for Activity with 0.05% Triton: initial activity in UAF/min
T2 construct: The active site of the dengue protease is in the N-terminal part of NS3
Excerpt: A further investigation of the interactions of the geminoid inhibitors with biological membranes and with membrane-bound proteases is needed. […] The preparation and tests of peptides symmetrically, asymmetrically and singly alkylated with saturated, short (C6), and unsaturated (C18:1) alkyl tails are in progress.

trypsin = biological target: T3, trypsin (Bos taurus, UniProt P00760); experiment: Trypsin inhibition, fluorimetric enzyme assay; assay type: biochemical; conditions: 36.5° C., read-out: Residual Activity (%) Trypsin
T3 construct: gene PRSS1
T3 sequence (P00760 24-246): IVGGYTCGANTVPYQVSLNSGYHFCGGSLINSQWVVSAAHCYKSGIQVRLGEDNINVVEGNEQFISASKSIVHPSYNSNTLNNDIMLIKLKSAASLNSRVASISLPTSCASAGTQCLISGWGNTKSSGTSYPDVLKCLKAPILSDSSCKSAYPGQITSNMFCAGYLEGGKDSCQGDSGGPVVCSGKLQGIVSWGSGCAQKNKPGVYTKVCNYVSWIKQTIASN
Method: (§1) The enzyme was dissolved in 1 mL MES buffer (10 mM), 1 mM CaCl2, pH 7.0 at 36.5° C. Substrate was added in a concentration 10 times the Km, and the inhibitor compounds of type C (C16-KGnK-C16, C16-KAnK-C16, and C16-RAnR-C16) were added in increasing concentrations (1.0, 5.0, 10.0, 20.0, 40.0 μL) from a stock solution of 2 mg in 1 mL DMSO. The residual activity was measured in a Hitachi F2500 spectrofluorimeter, and plots were fitted using the Grafit® software (Erithracus Software, Horley, Surrey, UK). All the assays were calculated by the Morrison equation for competitive inhibition (eq. 1, [Morrison, 1969]). The amount of substrate used for the tight binding titration experiments follow all the requirements, where [S]<<Km for all enzymes, so the Kiapp=Ki.
The first group of gemini-like peptide amphiphiles to be screened was that of C16-K(G or A)nK-C16 (compound type C, with R1=n-C15H31, R2=n-C16H33). […] The results of the Ki determination for trypsin, dengue 2 protease, and human furin are given in Table 1A; some general data for the inhibition by this type of compounds are given in Table 1B. For most compounds in Table 1 the Ki could be derived from competitive inhibition experiments. Judging from the Ki values with the relatively simple substrate Z-RR-MCA, the best inhibitors for dengue 2 protease contain alanine (A) rather than glycine (G).

human furin = human furin (Homo sapiens, UniProt P09958); experiment: Human furin inhibition, hydrolysis of Ac-RVRR-MCA; assay type: biochemical
Method: as §1
However, for furin we used a correction of Ki app, where [S]˜Km (eq. 2).
(§2) Range of Proteases Inhibited by Geminoids, Determination of Ki with Z-RR-MCA (Dengue 2 Protease) and Ac-RVRR-MCA (Furin) (SEQ ID NO:60).

dengue 2 protease [2] = biological target: T2, dengue 2 protease; experiment: Dengue 2 protease inhibition, hydrolysis of Z-RR-MCA; assay type: biochemical, dengue 2 virus; parameters: Activity with inhibitors: unit not given here; conditions: for Activity with inhibitors: 10 μM Z-RR-MCA, pH 9.0, 37° C., initial activity in UAF/min
Method: The active site of the dengue protease is in the N-terminal part of NS3 which is also a serine protease with catalytic triad Asp79-His51-Ser135, but requires […] (CF40) for activity; the inhibition reported here was studied on a […] (CF40-GGGGSGGGG-NS3; (SEQ ID NO:54)) which has also been structurally characterized [Erbel et al., 2006; Luo et al. 2008].
as §1, with “Substrate” for “The enzyme was dissolved in 1 mL MES buffer (10 mM), 1 mM CaCl2, pH 7.0 at 36.5° C. Substrate”
as §2

T1 sequence (P14340 1476-1653): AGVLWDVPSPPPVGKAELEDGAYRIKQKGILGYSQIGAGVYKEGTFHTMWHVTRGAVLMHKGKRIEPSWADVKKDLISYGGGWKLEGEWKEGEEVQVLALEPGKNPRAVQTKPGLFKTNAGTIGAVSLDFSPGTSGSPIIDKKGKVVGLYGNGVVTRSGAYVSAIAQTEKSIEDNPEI
T1 sequence (P14340 1398-1437): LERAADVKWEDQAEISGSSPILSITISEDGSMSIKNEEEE
T2 sequence (P14340 1476-1653): as the sequence (P14340 1476-1653) above
human furin, sequence (P09958 108-794): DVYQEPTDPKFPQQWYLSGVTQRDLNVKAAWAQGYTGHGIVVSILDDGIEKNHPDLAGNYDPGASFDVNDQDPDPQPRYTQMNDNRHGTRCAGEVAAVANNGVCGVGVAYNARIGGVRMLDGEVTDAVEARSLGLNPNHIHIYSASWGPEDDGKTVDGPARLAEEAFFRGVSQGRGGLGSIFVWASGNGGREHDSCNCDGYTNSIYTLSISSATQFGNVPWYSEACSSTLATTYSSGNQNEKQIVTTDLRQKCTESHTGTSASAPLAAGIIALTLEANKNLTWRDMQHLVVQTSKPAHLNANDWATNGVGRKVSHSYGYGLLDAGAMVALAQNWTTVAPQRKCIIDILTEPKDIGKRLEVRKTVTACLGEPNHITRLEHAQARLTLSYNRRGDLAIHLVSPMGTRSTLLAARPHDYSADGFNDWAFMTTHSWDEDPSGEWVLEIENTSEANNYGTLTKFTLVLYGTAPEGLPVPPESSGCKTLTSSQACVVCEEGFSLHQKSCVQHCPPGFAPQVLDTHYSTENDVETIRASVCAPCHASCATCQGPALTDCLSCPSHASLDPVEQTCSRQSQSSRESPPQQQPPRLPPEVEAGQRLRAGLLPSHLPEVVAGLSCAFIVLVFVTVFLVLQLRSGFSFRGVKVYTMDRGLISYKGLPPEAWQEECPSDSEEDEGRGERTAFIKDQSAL

Compound: C16-D-AKAK-L-S-C16: geminoid in shorthand Cp-Zn-Cq, D-AKAK with L-S, SEQ ID NO: 89 (C16-[dA][dK][dA][dK]S-C16)
- % Inhibition at 50 μM (2) (DENV2 protease): 108.0%
- Replicon activity [μM] (1) (DENV2 protease replicon): 3.0 µM

Compound: CCCCCCCCCCCCCCCCNC(=O)[C@@H](CO)NC(=O)[C@@H](CCCCN)NC(=O)[C@@H](C)NC(=O)[C@@H](CCCCN)NC(=O)[C@@H](CC(C)C)NC(=O)CCCCCCCCCCCCCCC [C16-D-LKAKS-C16] (HELM PEPTIDE1{[CCCCCCCCCCCCCCCC(=O)[*:2]].[dL].[dK].[dA].[dK].[dS].[CCCCCCCCCCCCCCCCN[*:1]]}$$$$V2.0)
- inhibition at 50 µM (DENV2 protease): 97.4%
- Replicon activity [μM] (1) (DENV2 protease replicon): 3.0 µM

Compound: CCCCCCCCCCCCCCCCNC(=O)[C@H](CCCCN)NC(=O)[C@H](C)NC(=O)[C@H](C)NC(=O)[C@H](CCCCN)NC(=O)CCCCCCCCCCCCCCC [C16-KAAK-C16] (HELM PEPTIDE1{[CCCCCCCCCCCCCCCC(=O)[*:2]].K.A.A.K.[CCCCCCCCCCCCCCCCN[*:1]]}$$$$V2.0)
- remaining activity at 15 µM (thrombin; 15 μM inhibitor): 80%
- remaining activity at 40 µM (thrombin; 40 μM inhibitor): 55%
- remaining activity at 80 µM (thrombin; 80 μM inhibitor): 39%
- % recovery in presence of Triton (dengue 2 protease [1]; 25 μM of inhibitor): 56%
- Activity with 0.05% Triton (dengue 2 protease [1]; 25 μM of inhibitor): 100
- inhibition at 50 µM (DENV2 protease): 97.7%
- remaining activity at 15 µM (trypsin; 15 μM inhibitor): 64%
- remaining activity at 40 µM (trypsin; 40 μM inhibitor): 20%
- remaining activity at 80 µM (trypsin; 80 μM inhibitor): 7%
- activity at 2.5 µM (human furin; 2.5 μM inhibitor, 36.5° C.): 94%
- activity at 5 µM (human furin; 5 μM inhibitor, 36.5° C.): 83%
- activity at 10 µM (human furin; 10 μM inhibitor, 36.5° C.): 77%
- activity at 15 µM (human furin; 15 μM inhibitor, 36.5° C.): 69%
- activity at 40 µM (human furin; 40 μM inhibitor, 36.5° C.): 3%
- Ki (human furin; 10 mM Mes.NaOH, pH 7.0, 2.35 μM Ac-RVRR-MCA, 37° C., read-out: Ki hFurin): 0.97 µM
- Ki (dengue 2 protease [2]): 0.63 µM
- activity at 2.5 µM (dengue 2 protease [2]; 2.5 μM inhibitor, 36.5° C.): 89%
- activity at 5 µM (dengue 2 protease [2]; 5 μM inhibitor, 36.5° C.): 79%
- activity at 10 µM (dengue 2 protease [2]; 10 μM inhibitor, 36.5° C.): 68%
- activity at 15 µM (dengue 2 protease [2]; 15 μM inhibitor, 36.5° C.): 45%
- Activity with inhibitors (dengue 2 protease [2]; 25 μM of inhibitor): 0
- activity at 40 µM (dengue 2 protease [2]; 40 μM inhibitor, 36.5° C.): 10%
- Replicon activity [μM] (1) (DENV2 protease replicon): 3.0 µM

Compound: CCCCCCCCCCCCCCCCNC(=O)[C@H](CO)NC(=O)[C@H](CCCCN)NC(=O)[C@H](C)NC(=O)[C@H](CCCCN)NC(=O)[C@H](CC(C)C)NC(=O)CCCCCCCCCCCCCCC [C16-LKAKS-C16] (HELM PEPTIDE1{[CCCCCCCCCCCCCCCC(=O)[*:2]].L.K.A.K.S.[CCCCCCCCCCCCCCCCN[*:1]]}$$$$V2.0)
- IC50 (DENV2 protease): 0.3 µM
- inhibition at 50 µM (DENV2 protease): 108%
- Replicon activity [μM] (1) (DENV2 protease replicon): 3.0 µM

Compound: C16-AKAK-C16: geminoid in shorthand Cp-Zn-Cq, peptide SEQ ID NO: 74
- % Inhibition at 50 μM (2) (DENV2 protease): 103.7%
- Replicon activity [μM] (1) (DENV2 protease replicon): 3.0 µM

Compound: C16-AAQK-C16: geminoid in shorthand Cp-Zn-Cq, peptide SEQ ID NO: 78
- % Inhibition at 50 μM (2) (DENV2 protease): 26.8%
- Replicon activity [μM] (1) (DENV2 protease replicon): 5.0 µM

Compound: CCCCCCCCCCCCNC(=O)[C@H](CCCCN)NC(=O)[C@H](CCCCN)NC(=O)[C@H](CCCCN)NC(=O)[C@H](CC(C)C)NC(=O)CCCCCCCCCCC [C12-LKKK-C12] (HELM PEPTIDE1{[CCCCCCCCCCCC(=O)[*:2]].L.K.K.K.[CCCCCCCCCCCCN[*:1]]}$$$$V2.0)
- IC50 (DENV2 protease): 0.3 µM
- inhibition at 50 µM (DENV2 protease): 102%
- Replicon activity [μM] (1) (DENV2 protease replicon): 0.1 µM

Compound: C16-AKAKG-C16: geminoid in shorthand Cp-Zn-Cq, peptide SEQ ID NO: 87
- % Inhibition at 50 μM (2) (DENV2 protease): 102.3%
- Replicon activity [μM] (1) (DENV2 protease replicon): 3.0 µM

Compound: CCCCCCCCCCCCCCCCNC(=O)[C@H](CCCCN)NC(=O)[C@H](CCCCN)NC(=O)[C@H](CCCCN)NC(=O)[C@H](Cc1ccccc1)NC(=O)CCCCCCCCCCCCCCC [C16-FKKK-C16] (HELM PEPTIDE1{[CCCCCCCCCCCCCCCC(=O)[*:2]].F.K.K.K.[CCCCCCCCCCCCCCCCN[*:1]]}$$$$V2.0)
- IC50 (DENV2 protease): 0.2 µM
- inhibition at 50 µM (DENV2 protease): 95.8%
- Replicon activity [μM] (1) (DENV2 protease replicon): 5.0 µM

Compound: CCCCCCCCCCCCNC(=O)[C@H](CCCCN)NC(=O)[C@H](CCCCN)NC(=O)[C@H](CCCCN)NC(=O)[C@H](C)NC(=O)CCCCCCCCCCC [C12-AKKK-C12] (HELM PEPTIDE1{[CCCCCCCCCCCC(=O)[*:2]].A.K.K.K.[CCCCCCCCCCCCN[*:1]]}$$$$V2.0)
- IC50 (DENV2 protease): 0.3 µM
- inhibition at 50 µM (DENV2 protease): 98.5%
- Replicon activity [μM] (1) (DENV2 protease replicon): 0.1 µM

Compound: CCCCCCCCCCCCCCCCNC(=O)[C@H](CCCCN)NC(=O)[C@H](CCC(N)=O)NC(=O)[C@H](C)NC(=O)[C@H](CCCNC(=N)N)NC(=O)CCCCCCCCCCCCCCC [C16-RAQK-C16] (HELM PEPTIDE1{[CCCCCCCCCCCCCCCC(=O)[*:2]].R.A.Q.K.[CCCCCCCCCCCCCCCCN[*:1]]}$$$$V2.0)
- IC50 (DENV2 protease): 0.6 µM
- inhibition at 50 µM (DENV2 protease): 102%
- Replicon activity [μM] (1) (DENV2 protease replicon): 10.0 µM

Compound: C16-LKAKG-C16: geminoid in shorthand Cp-Zn-Cq, peptide SEQ ID NO: 88
- % Inhibition at 50 μM (2) (DENV2 protease): 98.4%
- Replicon activity [μM] (1) (DENV2 protease replicon): 3.0 µM

Compound: CCCCCCCCCCCCCCCCNC(=O)[C@H](CCCCN)NC(=O)[C@H](CCC(N)=O)NC(=O)[C@H](CCCNC(=N)N)NC(=O)[C@H](C)NC(=O)CCCCCCCCCCCCCCC [C16-ARQK-C16] (HELM PEPTIDE1{[CCCCCCCCCCCCCCCC(=O)[*:2]].A.R.Q.K.[CCCCCCCCCCCCCCCCN[*:1]]}$$$$V2.0)
- IC50 (DENV2 protease): 0.3 µM
- inhibition at 50 µM (DENV2 protease): 95.7%
- Replicon activity [μM] (1) (DENV2 protease replicon): 5.0 µM

Compound: CCCCCCCCCCCCCCCCNC(=O)[C@H](CCCNC(=N)N)NC(=O)[C@H](C)NC(=O)[C@H](CCCNC(=N)N)NC(=O)CCCCCCCCCCCCCCC [C16RARC16, n-C15H31C(O)-Arg-Ala-Arg-(n-C16H33).2TFA]
- % recovery in presence of Triton (dengue 2 protease [1]; 5 μM of inhibitor): 52%
- Activity with 0.05% Triton (dengue 2 protease [1]; 5 μM of inhibitor): 105
- Ki (dengue 2 protease [2]): 3.1 µM
- Activity with inhibitors (dengue 2 protease [2]; 5 μM of inhibitor): 27
